Results from patent US20240374602A1, “METHODS FOR TREATING NEUROGENERATIVE DISEASES” (PTC THERAPEUTICS, INC., priority 2021, published 2024).

System: MAPT 3R mRNA
Experiment: RT-qPCR Assay to Quantify MAPT 3R mRNA in Cells
Assay type: cell-based
Set-up: key to EC2X: An EC2x value≥3000 nM is indicated by “inactive.”; An EC2x value between >1500 nM and ≤3000 nM is indicated by one star (*); An EC2x value between >1000 nM and ≤1500 nM is indicated by two stars (**); An EC2x value between >500 nM and ≤1000 nM is indicated by three stars (***); An EC2x value between >50 nM and ≤500 nM is indicated by four stars (****); An EC2x value≤50 nM is indicated by five stars (*****)
Conditions: cells incubated with compound 24 h; 7-point concentration curve; in house MAPT minigene 3R primer/probe with GAPDH assay; EC2x interpolated from dose response curve
Description: RT-qPCR Assay to Quantify MAPT 3R mRNA in Cells
Test compounds were serially diluted 3.16-fold in 100% DMSO to generate a 7-point concentration curve. Aliquots of 0.5 μL of diluted compounds were transferred to a 96-well flat bottom plate by a liquid handler. An aliquot of 0.5 μL DMSO was also transferred to separate wells and used as controls. Duplicate samples were set up for each compound concentration and for the DMSO control.
Cells were thawed and incubated in cell culture media (DMEM, 1 FBS, and No antibiotic cocktail) for 72 h. Cells were trypsinized, counted, and re-suspended to a concentration of 200,000 cells/mL in cell culture media. A 100 μL aliquot of the cell suspensions were plated at 20,000 cells per well in the compound containing 96 well microtiter plate and incubated for in a cell culture incubator (37° C., […], 100% relative humidity).
After 24 h, media was aspirated from the cells and 20 μL of the RCL2 lysis buffer (10 mM Tris-HCL pH 7.4, 150 mM NaCl, […]) was added to each well and incubated at RT for 1 mi. Chilled nuclease free water (140 μL per well) was added and the plates were immediately transferred on ice. After 1 min on ice, plates were frozen at −80° C. overnight.
Preparation of RT-PCR Reaction Mixture:
An aliquot of 4 μL/well of the cell lysates was transferred using the liquid handler to the Armadillo 384-Well PCR plate containing 6 μL/well of the RT-qPCR reaction mixture that was prepared as detailed above. The plates were then sealed with MicroAmp™ Optical Adhesive Film followed by spinning down for 1 min and placed in the CFX384 thermocycler (BioRad).
The RT-qPCR was carried out at the following temperatures for the indicated time: • Step 1: 48° C. (30 min) • Step 2: 95° C. (10 min) • Step 3: 95° C. (15 sec) • Step 4: 60° C. (1 min); then, repeated Steps 3 and 4 for a total of 40 cycles.
The percent exon 4 skipping was calculated for each dose of compound treatment using Equations 1 and 2.
Data were fit to a dose response curve and the EC2x was interpolated using XLfit® statistical and curve fitting package.
An EC2x value between >1000 nM and ≤1500 nM is indicated by two stars (**). An EC2x value between >500 nM and ≤1000 nM is indicated by three stars (***). An EC2x value between >50 nM and ≤500 nM is indicated by four stars (****). An EC2x value≤50 nM is indicated by five stars (*****).

Row | SMILES | EC (2-fold) [µM] | EC2X
1 | Cc1c(C[C@H](C)NC2CCC2)sc2c(NCc3ccco3)nc(Cl)nc12 [Cpd 78, 2-chloro-6-[(2S)-2-(cyclobutylamino)propyl]-N-[(furan-2-yl)methyl]-7-methylthieno[3,2-d]pyrimidin-4-amine] | 1.5 to 3 | 
2 | Cc1csc2c(NCc3ccncc3)nc(Cl)nc12 [Cpd 23, 2-chloro-7-methyl-N-[(pyridin-4-yl)methyl]thieno[3,2-d]pyrimidin-4-amine] | 0.05 to 0.5 | 
3 | CC(C)[C@H](N)Cc1cc2nc(Cl)nc(NCc3ccco3)c2s1 [Cpd 5, 6-[(2R)-2-amino-3-methylbutyl]-2-chloro-N-[(furan-2-yl)methyl]thieno[3,2-d]pyrimidin-4-amine] | 0.05 to 0.5 | 
4 | Cc1nc(NCc2ccco2)c2sc(C[C@H](C)N)c(C)c2n1 [Cpd 15, 6-[(2S)-2-aminopropyl]-N-[(furan-2-yl)methyl]-2,7-dimethylthieno[3,2-d]pyrimidin-4-amine] | 0.05 to 0.5 | 
5 | Cc1c(C[C@H](C)N)sc2c(NCc3ncc(F)s3)nc(Cl)nc12 [Cpd 93, 6-[(2S)-2-aminopropyl]-2-chloro-N-[(5-fluoro-1,3-thiazol-2-yl)methyl]-7-methylthieno[3,2-d]pyrimidin-4-amine] | 0.05 to 0.5 | 
6 | C[C@H](N)Cc1sc2c(NCc3cccs3)nc(Cl)nc2c1C1CC1 [Cpd 86, 6-[(2S)-2-aminopropyl]-2-chloro-7-cyclopropyl-N-[(thiophen-2-yl)methyl]thieno[3,2-d]pyrimidin-4-amine] | 0.05 to 0.5 | 
7 | Cc1c(C[C@@H](N)CO)sc2c(NCc3cccs3)nc(Cl)nc12 [Cpd 56, (2R)-2-amino-3-(2-chloro-7-methyl-4-{[(thiophen-2-yl)methyl]amino}thieno[3,2-d]pyrimidin-6-yl)propan-1-ol] | ≤ 0.05 | 
8 | Cc1c(C[C@H](C)N)sc2c(NCc3ncccc3F)nc(Cl)nc12 [Cpd 59, 6-[(2S)-2-aminopropyl]-2-chloro-N-[(3-fluoropyridin-2-yl)methyl]-7-methylthieno[3,2-d]pyrimidin-4-amine] | 0.5 to 1 | 
9 | CC[C@H](N)Cc1sc2c(NCc3ccns3)nc(Cl)nc2c1C [Cpd 62, 6-[(2S)-2-aminobutyl]-2-chloro-7-methyl-N-[(1,2-thiazol-5-yl)methyl]thieno[3,2-d]pyrimidin-4-amine] | 0.05 to 0.5 | 
10 | Cc1c(C[C@@H](N)CCF)sc2c(NCc3ccco3)nc(Cl)nc12 [Cpd 51, 6-[(2S)-2-amino-4-fluorobutyl]-2-chloro-N-[(furan-2-yl)methyl]-7-methylthieno[3,2-d]pyrimidin-4-amine] | ≤ 0.05 | 
11 | Cc1c(C[C@H](C)N)sc2c(NCc3sccc3F)nc(Cl)nc12 [Cpd 90, 6-[(2S)-2-aminopropyl]-2-chloro-N-[(3-fluorothiophen-2-yl)methyl]-7-methylthieno[3,2-d]pyrimidin-4-amine] | 0.05 to 0.5 | 
12 | CCc1c(C[C@H](C)N)sc2c(NCc3ccco3)nc(Cl)nc12 [Cpd 77, 6-[(2S)-2-aminopropyl]-2-chloro-7-ethyl-N-[(furan-2-yl)methyl]thieno[3,2-d]pyrimidin-4-amine] | 0.05 to 0.5 | 
13 | Cc1c(C[C@H](C)N)sc2c(NCc3nc(F)cs3)nc(Cl)nc12 [Cpd 92, 6-[(2S)-2-aminopropyl]-2-chloro-N-[(4-fluoro-1,3-thiazol-2-yl)methyl]-7-methylthieno[3,2-d]pyrimidin-4-amine] | 0.05 to 0.5 | 
14 | Cc1c(C[C@@H](N)CCO)sc2c(NCc3ccco3)nc(Cl)nc12 [Cpd 97, (3S)-3-amino-4-(2-chloro-4-{[(furan-2-yl)methyl]amino}-7-methylthieno[3,2-d]pyrimidin-6-yl)butan-1-ol] | ≤ 0.05 | 
15 | Cc1ccc(CNc2nc(Cl)nc3c(C)c(C[C@H](C)N)sc23)o1 [Cpd 24, 6-[(2S)-2-aminopropyl]-2-chloro-7-methyl-N-[(5-methylfuran-2-yl)methyl]thieno[3,2-d]pyrimidin-4-amine] | 0.05 to 0.5 | 
16 | Cc1c(C[C@H](C)N)sc2c(NCc3ccco3)nc(Br)nc12 [Cpd 38, 6-[(2S)-2-aminopropyl]-2-bromo-N-[(furan-2-yl)methyl]-7-methylthieno[3,2-d]pyrimidin-4-amine] | 0.5 to 1 | 
17 | Cc1c(C[C@H](C)N)sc2c(NCc3cncs3)nc(Cl)nc12 [Cpd 74, 6-[(2S)-2-aminopropyl]-2-chloro-7-methyl-N-[(1,3-thiazol-5-yl)methyl]thieno[3,2-d]pyrimidin-4-amine] | ≤ 0.05 | 
18 | Cc1cnc(CNc2nc(Cl)nc3c(C)c(C[C@H](C)N)sc23)s1 [Cpd 31, 6-[(2S)-2-aminopropyl]-2-chloro-7-methyl-N-[(5-methyl-1,3-thiazol-2-yl)methyl]thieno[3,2-d]pyrimidin-4-amine] | 1.5 to 3 | 
19 | Cc1c(C[C@@H](C)CN)sc2c(NCc3ccco3)nc(Cl)nc12 [Cpd 72, 6-[(2R)-3-amino-2-methylpropyl]-2-chloro-N-[(furan-2-yl)methyl]-7-methylthieno[3,2-d]pyrimidin-4-amine] | 1.5 to 3 | 
20 | Cc1c(C[C@H](C)N)sc2c(NCc3ccco3)nc(Cl)nc12 [Cpd 12, 6-[(2S)-2-aminopropyl]-2-chloro-N-[(furan-2-yl)methyl]-7-methylthieno[3,2-d]pyrimidin-4-amine] | ≤ 0.05 | 
21 | Cc1c(C[C@H](C)N)sc2c(NCc3nccs3)nc(Cl)nc12 [Cpd 29, 6-[(2S)-2-aminopropyl]-2-chloro-7-methyl-N-[(1,3-thiazol-2-yl)methyl]thieno[3,2-d]pyrimidin-4-amine] | ≤ 0.05 | 
22 | C[C@H](N)Cc1sc2c(NCc3cccs3)nc(Cl)nc2c1Br [Cpd 82, 6-[(2S)-2-aminopropyl]-7-bromo-2-chloro-N-[(thiophen-2-yl)methyl]thieno[3,2-d]pyrimidin-4-amine] | ≤ 0.05 | 
23 | Cc1c(C[C@H](C)N)sc2c(NCc3cccnc3F)nc(Cl)nc12 [Cpd 60, 6-[(2S)-2-aminopropyl]-2-chloro-N-[(2-fluoropyridin-3-yl)methyl]-7-methylthieno[3,2-d]pyrimidin-4-amine] | 1.5 to 3 | 
24 | Cc1c(C[C@H](C)N)sc2c(NCc3c(F)cncc3F)nc(Cl)nc12 [Cpd 64, 6-[(2S)-2-aminopropyl]-2-chloro-N-[(3,5-difluoropyridin-4-yl)methyl]-7-methylthieno[3,2-d]pyrimidin-4-amine] |  | inactive
25 | Cc1c(C[C@H](C)N)sc2c(NCc3cnco3)nc(Cl)nc12 [Cpd 75, 6-[(2S)-2-aminopropyl]-2-chloro-7-methyl-N-[(1,3-oxazol-5-yl)methyl]thieno[3,2-d]pyrimidin-4-amine] | 0.5 to 1 | 
26 | Cc1c(C[C@H](C)N)sc2c(NCc3ccno3)nc(Cl)nc12 [Cpd 39, 6-[(2S)-2-aminopropyl]-2-chloro-7-methyl-N-[(1,2-oxazol-5-yl)methyl]thieno[3,2-d]pyrimidin-4-amine] | 0.05 to 0.5 | 
27 | Cc1c(C[C@H](C)N)sc2c(NCc3cccs3)nc(Cl)nc12 [Cpd 28, 6-[(2S)-2-aminopropyl]-2-chloro-7-methyl-N-[(thiophen-2-yl)methyl]thieno[3,2-d]pyrimidin-4-amine] | ≤ 0.05 | 
28 | Cc1c(C[C@H](C)N)sc2c(NCc3ccc(F)s3)nc(Cl)nc12 [Cpd 33, 6-[(2S)-2-aminopropyl]-2-chloro-N-[(5-fluorothiophen-2-yl)methyl]-7-methylthieno[3,2-d]pyrimidin-4-amine] | 0.05 to 0.5 | 
